Test results taken from ChEMBL document CHEMBL1137218, “Long hydrocarbon chain ether diols and ether diacids that favorably alter lipid disorders in vivo” (J Med Chem, 2004).

Tests used:
Rattus norvegicus [1] = assay: Serum HDL cholesterol levels in female obese rats one week post treatment at 10 mg/kg oral dose; pretreatment value = 61 mg/dL; type: functional
Rattus norvegicus [2] = assay: Blood glucose levels in female obese rats two weeks post treatment at 3 mg/kg oral dose; pretreatment value = 115 mg/dL; type: functional
Rattus norvegicus [3] = assay: Blood glucose levels in female obese rats one week post treatment at 30 mg/kg oral dose; pretreatment value = 106 mg/dL; type: functional
Rattus norvegicus [4] = assay: Serum Triglyceride levels in female obese rats two weeks post treatment at 3 mg/kg oral dose; pretreatment value = 1111 mg/dL; type: functional
Rattus norvegicus [5] = assay: Serum Non-HDL cholesterol levels in female obese rats two weeks post treatment at 10 mg/kg oral dose; pretreatment value = 33 mg/dL
Rattus norvegicus [6] = assay: Serum NEFA levels in female obese rats one week post treatment at 100 mg/kg oral dose; pretreatment value = 1.2 mg/dL; type: functional
Rattus norvegicus [7] = assay: Serum Triglyceride levels in female obese rats two weeks post treatment at 30 mg/kg oral dose; pretreatment value = 1004 mg/dL; type: functional
Rattus norvegicus [8] = assay: Serum NEFA levels in female obese rats one week post treatment at 3 mg/kg oral dose; pretreatment value = 1.2 mg/dL; type: functional
Rattus norvegicus [9] = assay: Serum NEFA levels in female obese rats two weeks post treatment at 30 mg/kg oral dose; pretreatment value = 1.3 mg/dL; type: functional
Rattus norvegicus [10] = assay: Insulin levels in female obese rats two weeks post treatment at 3 mg/kg oral dose; pretreatment value = 12.9 ng/mL; type: functional
Rattus norvegicus [11] = assay: Serum NEFA levels in female obese rats one week post treatment at 30 mg/kg oral dose; pretreatment value = 1.3 mg/dL; type: functional

Compound | Activity (Rattus norvegicus [1]) [mg/dL] | Activity (Rattus norvegicus [2]) [mg/dL] | Activity (Rattus norvegicus [3]) [mg/dL] | Activity (Rattus norvegicus [4]) [mg/dL] | Activity (Rattus norvegicus [5]) [mg/dL] | Activity (Rattus norvegicus [6]) [mg/dL] | Activity (Rattus norvegicus [7]) [mg/dL] | Activity (Rattus norvegicus [8]) [mg/dL] | Activity (Rattus norvegicus [9]) [mg/dL] | Activity (Rattus norvegicus [10]) [ng/mL] | Activity (Rattus norvegicus [11]) [mg/dL]
CC(C)(CO)CCCCCOCCCCCC(C)(C)CO | 92 | 114 | 113 | 1116 | 53 | 1.2 | 424 | – | – | – | –
CC(C)(CO)CCCCOCCCCC(C)(C)CO | – | – | – | – | – | – | – | 1.7 | 0.75 | 9.9 | 0.76
